Earlier results, collected in US5389382A, “Hydrosols of pharmacologically active agents and their pharmaceutical compositions comprising them” (Sandoz Ltd., priority 1986, dated 1995).

Details: at room temperature

## Cc1ccc2c(-c3ccccc3)nc(=O)n(C(C)C)c2c1 [Proquazone, 1-isopropyl-7-methyl-4-phenyl-2(1H)-quinazolone]
  water solubility: below 0.1 g/100 ml
